Data reported in PubChem BioAssay (NCI).
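The compound was tested at five concentrations on cells cultured in 96-well plates, with a 48-hour exposure period. Here, GI50 denotes the concentration required for 50% inhibition of growth. The concentration for full growth arrest is given as TGI.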

Assays:
Assay in all cases: growth of human tumour cells (NCI), 48 h
[1] = tested on: SF-295 CNS
[2] = tested on: A549 NSCLC
[3] = tested on: SF-268 CNS
[4] = tested on: MOLT-4 leukemia
[5] = tested on: HT29 colon
[6] = tested on: HOP-92 NSCLC
[7] = tested on: SNB-19 CNS
[8] = tested on: MDA-MB-231 breast
[9] = tested on: SK-MEL-2 melanoma
[10] = tested on: IGROV1 ovarian

Row | Compound | GI50 [1] [µM] | TGI [1] [µM] | GI50 [2] [µM] | TGI [2] [µM] | GI50 [3] [µM] | TGI [3] [µM] | GI50 [4] [µM] | TGI [4] [µM] | GI50 [5] [µM] | TGI [5] [µM] | GI50 [6] [µM] | TGI [6] [µM] | GI50 [7] [µM] | TGI [7] [µM] | GI50 [8] [µM] | TGI [8] [µM] | GI50 [9] [µM] | TGI [9] [µM] | GI50 [10] [µM] | TGI [10] [µM]
1 | CN(Cc1ccc(Cl)cc1)c1ccc(CO)c(Cl)c1 | 2.48 | 16 | 3.9 | 17.8 | 14.2 | 29.5 | 18 | 66.2 | 6.7 | 22.6 | 3.16 | 16.1 | 16.8 | 51.6 | 11 | 29.9 | 4.06 | 16.3 | 0.365 | 2.24
2 | Clc1ccc(/C=C/c2cc(N3CCOCC3)c3cc(Cl)c(Cl)cc3n2)cc1 | > 100 | > 100 | > 100 | > 100 | > 100 | > 100 | 0.428 | – | > 100 | > 100 | > 100 | > 100 | > 100 | > 100 | 11.1 | > 100 | > 100 | > 100 | > 100 | > 100
3 | Nc1ncnc2c1ncn2Cc1ccc(C23CC4CC(CC(C4)C2)C3)c(OCc2cc(F)c(F)cc2F)c1 | 6.29 | > 100 | 3.61 | 14.7 | 8.57 | > 100 | 2.69 | 7.97 | 12 | > 100 | 4.63 | 32.7 | 29.5 | > 100 | 6.39 | > 100 | > 100 | > 100 | 7.54 | > 100
4 | CC(=O)CCc1ccc(OC2OC(COC(=O)c3cc(O)c(O)c(O)c3)C(O)C(O)C2OC(=O)/C=C/c2ccccc2)cc1 (stereo not drawn) | 24.5 | 52.2 | 25.8 | 59.7 | 19.3 | 49.4 | 17.2 | 48.7 | 29.6 | 82.2 | 30.4 | > 100 | 18.4 | 49.7 | 19.6 | 44.5 | 20.2 | 43 | 19 | 38.6
5 | CCOc1ccccc1NC(=O)c1cc2ccccc2cc1O | 2.84 | 9.46 | 3.19 | 11.6 | 3.91 | 20.4 | 2.72 | 7.17 | 8.35 | 25.4 | 1.72 | 5.08 | 4.28 | 25.1 | 2.02 | 4.19 | 2.42 | 5.47 | 4.66 | 38.7
6 | N#C/C(=N\Nc1ccc(Cl)cc1)C(=O)Nc1cc(-c2ccccc2)nn1-c1ccccc1 | 2.86 | > 100 | 3.2 | > 100 | 2.65 | > 100 | 3.5 | > 100 | 3.32 | > 100 | 1.07 | 4.49 | 3.17 | > 100 | 2.86 | > 100 | 2.39 | 8.89 | 4.12 | > 100
7 | N=C(N)c1ccc(OCCOCCOc2ccc(C(=N)N)cc2)cc1 | 44.7 | > 100 | 40.1 | > 100 | 52 | > 100 | > 100 | > 100 | 78.3 | > 100 | 74.6 | > 100 | 80.6 | > 100 | > 100 | > 100 | 38.2 | > 100 | > 100 | > 100
8 | COc1cc2c3c(n(CCCN(CCN)CCCn4c5c(c6cc(OC)c(OC)cc6c4=O)C(=O)c4cc6c(cc4-5)OCO6)c(=O)c2cc1OC)-c1cc2c(cc1C3=O)OCO2 | 0.36 | 6.16 | 2.72 | > 100 | 0.794 | > 29.3 | 0.0846 | – | 2.52 | > 37 | 1.29 | 15 | 0.741 | > 100 | 3.3 | 17.3 | 21.1 | > 100 | – | –
9 | C/C=C/C/C=C/CCC(=O)[C@H]1O[C@H]1C(N)=O | – | 34.8 | 17.3 | 51.3 | – | 39.3 | 8.56 | 52 | – | 31.8 | 10.8 | 26.3 | 14.5 | 29.5 | 13.1 | 26.8 | 15.9 | 32.5 | 13.5 | 33.3
10 | COc1ccc(-n2cc(-c3cc(OC)c(OC)c(OC)c3)nc2SCc2ccccc2)cc1 | > 100 | > 100 | 79.6 | > 100 | > 100 | > 100 | 9.03 | > 100 | 35.6 | > 100 | 28.9 | > 100 | > 100 | > 100 | > 100 | > 100 | > 100 | > 100 | > 100 | > 100
11 | CC1=C(/C=C/C(=O)O)C(C)(C)CCC1 | – | > 100 | – | > 100 | – | > 100 | – | – | – | > 100 | – | > 100 | – | > 100 | – | > 100 | – | > 100 | – | > 100
12 | O=C1c2cccnc2C(=O)C2C3C=CC(C3)C12 (stereo not drawn) | – | 26.6 | – | 50.8 | – | 24.3 | – | – | – | 60.9 | – | 27 | – | 34.3 | – | 9.97 | – | 16.9 | – | 24
13 | O=c1cc(-c2ccccc2)oc2cc(O)c(O)c(O)c12 | 11.7 | 46.4 | 36.2 | > 100 | 4.55 | 29.6 | 53.7 | > 100 | 42.7 | > 100 | 3.58 | 48.7 | 30 | > 100 | 14.1 | 36.8 | 53.9 | > 100 | – | –
14 | Nc1nc(N)c(Cn2ccnc2)c(=O)[nH]1 | – | > 100 | – | > 100 | – | > 100 | – | – | – | > 100 | – | > 100 | – | > 100 | – | > 100 | – | > 100 | – | > 100
